# In patent publication US9079821B2, “Quinone based nitric oxide donating compounds” (NICOX S.A., priority 2011, dated 2015):
# Key:
# [1] = Pharmacokinetic profile in mice (blood 15N-nitrite levels); assay type: in vivo; conditions: CD1 mice
# Description: (§1) The absorption and in vivo NO-donating property of the compounds of the invention were assessed by the evaluation of blood ^15N-nitrite levels following oral administration.
# Tested Compounds: • 10-(4,5-dimethoxy-2-methyl-3,6-dioxocyclohexa-1,4-dienyl)decyl nitrate-nitrogen-15 which correspond to compound (6) containing nitrogen-15 (^15N-Compound (6)); • 5-isorbide mononitrate containing nitrogen-15 (5-ISM^15N)
# Male CD1 mice (n=3/time point) were orally treated with ^15N-Compound (6) at 100 mg/kg or 5-ISM^15N (30 mg/kg). At each time point (5, 10, 15, 30, 60, 120, 240, 360, 480 and 1440 min) blood was taken by cardiac puncture using heparin to avoid blood clotting. Blood samples were immediately protein crushed. Samples were analyzed by LC-MS/MS. ^15N-nitrite levels following oral administration of Compound (6) (100 mg/kg) or 5-ISM^15N (30 mg/kg) in CD1 mice are reported in Table 6.
# [2] = Pharmacokinetic profile in rats (blood 15N-nitrite levels); assay type: in vivo, rat; conditions: rat, in vivo, po, 30 mg/kg
# Description: as §1
# Tested Compounds: • 5-(2,4,5-trimethyl-3,6-dioxocyclohexa-1,4-dienylpentyl nitrate-nitrogen-15 which corresponds to compound (1) containing nitrogen-15 (^15N-Compound (1)); • 5-(4,5-dimethoxy-2-methyl-3,6-dioxocyclohexa-1,4-dienyl)pentyl nitrate-nitrogen-15 which corresponds to compound (2) containing nitrogen-15 (^15N-Compound (2)); • 4-(2,4,5-trimethyl-3,6-dioxocyclohexa-1,4-dienyl)butyl nitrate-nitrogen-15 which corresponds to compound (3) containing nitrogen-15 (^15N-Compound (3)); • 4-(4,5-dimethoxy-2-methyl-3,6-dioxocyclohexa-1,4-dienyl)butyl nitrate-nitrogen-15 which corresponds to compound (4) containing nitrogen-15 (^15N-Compound (4)); • 10-(2,4,5-trimethyl-3,6-dioxocyclohexa-1,4-dienyl)decyl nitrate-nitrogen-15 which corresponds to compound (5) containing nitrogen-15 (^15N-Compound (5)); • 10-(4,5-dimethoxy-2-methyl-3,6-dioxocyclohexa-1,4-dienyl)decyl nitrate-nitrogen-15 which corresponds to compound (6) containing nitrogen-15 (^15N-Compound (6)); • 3-(3-(4,5-dimethoxy-2-methyl-3,6-dioxocyclohexa-1,4-dienyl)propoxy)propyl nitrate-nitrogen-15 which corresponds to compound (14) containing nitrogen-15 (^15N-Compound (14)); • 6-(2,4,5-trimethyl-3,6-dioxocyclohexa-1,4-dienyl)hexyl nitrate-nitrogen-15 which corresponds to compound (15) containing nitrogen-15 (^15N-Compound (15)); • 6-(4,5-dimethoxy-2-methyl-3,6-dioxocyclohexa-1,4-dienyl)hexyl nitrate-nitrogen-15 which corresponds to compound (16) containing nitrogen-15 (^15N-Compound (16)); • 11-(4,5-dimethoxy-2-methyl-3,6-dioxocyclohexa-1,4-dienyl)-undecane-1,2-diyl dinitrate-nitrogen-15 which corresponds to compound (17) containing nitrogen-15 (^15N-Compound (17)); • 8-(5-methoxy-2,4-dimethyl-3,6-dioxocyclohexa-1,4-dienyl)octyl nitrate-nitrogen—which corresponds to compound (19) containing nitrogen-15 (^15N-Compound (19)); • 2-(3-(4,5-dimethoxy-2-methyl-3,6-dioxocyclohexa-1,4-dienyl)propoxy)ethyl nitrate-nitrogen-15 which corresponds to compound (20) containing nitrogen-15 (^15N-Compound (20)); • 6-(3-methyl-1,4-dioxo-1,4-dihydronaphthalen-2-yl)hexyl nitrate-nitrogen-15 which corresponds to compound (23) containing nitrogen-15 (^15N-Compound (23)); • 3-(3-(3-methyl-1,4-dioxo-1,4-dihydronaphthalen-2-yl)propoxy)propyl nitrate-nitrogen-15 which corresponds to compound (25) containing nitrogen-15 (^15N-Compound (25)); • 6-(5-methoxy-2,4-dimethyl-3,6-dioxocyclohexa-1,4-dienyl)hexyl nitrate-nitrogen-15 which corresponds to compound (28) containing nitrogen-15 (^15N-Compound (28)); • 6-(4-methoxy-2,5-dimethyl-3,6-dioxocyclohexa-1,4-dienyl)hexyl nitrate-nitrogen-15 which corresponds to compound (29) containing nitrogen-15 (^15N-Compound (29)); • 8-(4-methoxy-2,5-dimethyl-3,6-dioxocyclohexa-1,4-dienyl)octyl nitrate-nitrogen-15 which corresponds to compound (32) containing nitrogen-15 (^15N-Compound (32)); • 8-(2,4,5-trimethyl-3,6-dioxocyclohexa-1,4-dienyl)octyl nitrate-nitrogen-15 which corresponds to compound (34) containing nitrogen-15 (^15N-Compound (34)); • 5-isorbide mononitrate containing nitrogen-15 (5-ISM^15N).
# (§2) Cannulated SD rats were orally treated with ^15N-Compounds (6) at 30 mg/kg, 5-ISM^15N (30 mg/kg), or ^15N-Compounds (1)-(5), 14)-(17), (19), (20), (23), (25), (28), (29), (32), (34) at 30 mg/kg. At each time point (5, 10, 15, 30, 60, 180, 360 and 1440 min) blood was taken using heparin to avoid blood clotting. Blood samples were immediately protein crushed. Samples were analyzed by LC-MS/MS.
# In Table 7 are reported ^15N-nitrite blood levels following oral administration of SD rats with 5-ISM^15N (30 mg/kg) or with ^15N-labeled corresponding compounds of the invention (30 mg/kg).
# [3] = tested on: rat L-NAME-induced hypertension; test: Rat L-NAME-induced hypertension, systolic blood pressure after single oral dose; assay type: in vivo; conditions: for Delta vs basal (mmHg): 5-ISMN 30 mg/kg oral, L-NAME 50 mg/kg i.p.
# Description: To assess the in vivo NO-dependent activity, Compound (6) was evaluated for systolic blood pressure (SBP) reduction efficacy in a rat model of NO-deprivation induced by L-NAME and compared with 5-ISMN.
# (§3) Fasted male SD rats (250-300 g, n=3-5 per group), obtained from Harlan Italy (Correzzana, Milan, Italy) were orally treated with tested compounds or vehicle (DMSO:Methocel 1% 2/98 v/v) in a total volume of 4 ml/kg by gavage. At each time point (1, 3, 6 and 24 h) animals were deeply anesthetized with Zoletil® 100 (3 mg/kg), given intramuscularly. Thereafter, a pressure catheter (Samba Sensors, Harvard Apparatus, UK) was introduced into the common carotid artery for central blood pressure measurement. Pressure transducer was connected to a personal computer, in order to allow real time monitor of the pressure tracing. After 10 minutes of basal recording, L-NAME (50 mg/kg) was administered intraperitoneally and the effect on SBP monitored. When the SBP stabilized (5 minutes without variations) the recording was stopped. To further confirm that functional activity was NO-dependent, at each time point blood ^15N-nitrite levels were measured following the procedure described in Example 12.
# [4] = Blood 15N-nitrite levels in the rat L-NAME-induced hypertension study; assay type: in vivo; conditions: 5-ISMN 30 mg/kg oral
# Description: as §3, §2
# [5] = tested on: rat L-NAME-induced hypertension; test: In vivo tolerance evaluation (L-NAME-induced hypertension after 5-day oral treatment); conditions: for Delta vs basal (mmHg): peak effect 1 hour
# Description: as §3
# To investigate whether the compound (6) induced nitrate tolerance, as observed for most of the drugs belonging to the nitrate class, the L-NAME-induced hypertension rat model described in Example 7 was performed following a repeated oral treatment. Rats were orally treated for 5 days with vehicle, compound (6) (100 mg/kg) or 5-ISMN (30 mg/kg). […] The experiments were performed at the peak effect (1 hour for 5-ISMN and 3 hours for Compound (6)), results are reported in Table 3.
# [6] = tested on: isolated aortas from rats; test: Ex vivo tolerance evaluation (vascular response of isolated aortas from treated rats); assay type: in vivo, rat; conditions: for EC50: vascular response to 5-ISMN, 1 h after last administration
# Description: (§4) Thoracic aortas from male New Zealand rabbits or male Sprague Dawley (SD) were used. The aortas were placed immediately in Krebs-HEPES buffer (pH 7.4; composition mM: NaCl 130.0, KCl 3.7, NaHCO3 14.9, KH2PO4 1.2, MgSO4.7H2O 1.2, Glucose 11.0, HEPES 10.0, CaCl2.2H2O 1.6). Connective tissue was removed and aortas were cut into ring segments (4-5 mm in length). Each ring was placed in a 5 mL tissue bath filled with Krebs-HEPES buffer (37° C.) aerated with 95% O2 and 5% CO2 and was attached to a force transducer (Grass FT03), connected to a BIOPAC MP150 System for measurement of the isometric tension. Preparations were allowed to equilibrate for 1 h at a resting tension of 2 g for rabbit aortas and 1 g for rat aortas with changes of the buffer every 15 min. Then the rings were stimulated by exposure to 90 mM KCl (3 times) with intervening washings.
# (§5) Rat aorta. After equilibration, rat aortas were precontracted with KCl (90 mM) and, when the contraction was stable, a cumulative concentration-response curve to acetylcholine (ACh, 0.01-100 μM) was added. After washout, the rings were precontracted again with KCl (90 mM). When a steady-state level of contraction was obtained, a cumulative concentration-response curve to the tested compounds (0.01-100 μM) was obtained.
# (§6) Data analysis. Results are given as mean±SEM. Vascular responses are expressed as percentage relaxation and plotted vs concentration. The sensitivity of isolated aorta to different vasodilators is expressed as the concentration that elicited 50% of the maximal responses (EC50). Responses are quantified in terms of EC50 and Emax (maximal vasodilating effect) values, obtained from the concentration-response curve by nonlinear curve fitting, using GraphPad software.
# Tolerance to nitrate was further investigated assessing the vascular effects of Compound (6) following repeated treatment compared with 5-ISMN. The vascular response to the compound itself was assessed on isolated aortas from rats orally treated for 5 days with Compound (6) (100 mg/kg). The vascular response was performed as described in Example 6.
# Vascular responses were performed 1 h (ISMN) or 3 h (Compound (6)) after the last administration, the concentrations of tested compound that elicited the 50% of the maximal responses (EC50) are shown in Table 4.
# [7] = tested on: rat aorta, endothelial-dependent vasodilation (response to ACh); test: Endothelial dysfunction evaluation (vascular response to acetylcholine after treatment); assay type: in vivo; conditions: for % relaxation (Emax): response to ACh
# Description: as §4, §5, §6
# Endothelial-dependent vasodilation (vascular response to acetylcholine, ACh) was assessed following 5-day treatment with Compound (6) (100 mg/kg) or 5-ISMN (30 mg/kg). A relaxant response to ACh indicated the presence of a functional endothelium. The vascular response was performed as described in Example 6.
smiles,measurement,setting,value
"COC1=C(OC)C(=O)C(CCCCCCCCCCO[N+](=O)[O-])=C(C)C1=O [^15N-Compound (6), 10-(4,5-dimethoxy-2-methyl-3,6-dioxocyclohexa-1,4-dienyl)decyl nitrate-nitrogen-15]",Cmax,[1]; oral 100 mg/kg,3.1 ± 0.3 µM
same,Cmax,[2],2.6 ± 0.2 µM
"COC1=C(OC)C(=O)C(CCCCCCCCCCO[15N+](=O)[O-])=C(C)C1=O [^15N-Compound (6), 10-(4,5-dimethoxy-2-methyl-3,6-dioxocyclohexa-1,4-dienyl)decyl nitrate-nitrogen-15]",15N-nitrite AUC0-24,[1]; oral 100 mg/kg,1225 µM·min
same,15N-nitrite Tmax,[1]; oral 100 mg/kg,30 min
same,15N-nitrite AUC0-24,[2],2469 µM·min
same,15N-nitrite Tmax,[2],180 min
"O=[N+]([O-])O[C@@H]1CO[C@H]2[C@@H]1OC[C@@H]2O [Compound 5-ISMN, isosorbide-5-mononitrate, reference compound]",Delta vs basal (mmHg),[3]; 1 hour,10.5 ± 6.1 mmHg
same,Delta vs basal (mmHg),[3]; 3 hours,6.5 ± 2.4 mmHg
same,Delta vs basal (mmHg),[3]; 6 hours,51.2 ± 5.7 mmHg
same,Delta vs basal (mmHg),[3]; 24 hours,83 ± 9 mmHg
same,time over which L-NAME induced hypertension was counteracted after treatment,"[3]; 5-ISMN 30 mg/kg, single oral administration",≤ 3 h
same,15N-nitrite levels,[4]; 1 hour,11.0 ± 0.5 µM
same,15N-nitrite levels,[4]; 3 hours,8.7 ± 0.7 µM
same,15N-nitrite levels,[4]; 6 hours,6.5 ± 0.5 µM
same,15N-nitrite levels,[4]; 24 hours,0.34 ± 0.06 µM
same,"efficacy against L-NAME-induced hypertension after 5-day treatment (nitrate tolerance), in words","[5]; 5-ISMN 30 mg/kg oral, 5 days",did not maintain its efficacy in preventing L-NAME-induced hypertension
same,Delta vs basal (mmHg),"[5]; acute treatment, 5-ISMN 30 mg/kg oral",10.5 ± 6.1 mmHg
same,Delta vs basal (mmHg),"[5]; repeated (5 days) oral treatment, 5-ISMN 30 mg/kg",88 ± 11.5 mmHg
same,"vascular response of aortas from treated animals vs control arteries, in words","[6]; 5-ISMN 30 mg/kg, repeated treatment",showed a reduced vascular response to 5-ISMN compared to control arteries
same,EC50,"[6]; acute, aortas of rats given 5-ISMN 30 mg/kg",20 ± 0.6 µM
same,EC50,[6]; repeated (5 days oral) 5-ISMN 30 mg/kg,127 ± 48 µM
same,"effect on endothelial-dependent vasorelaxation, in words","[7]; 5-ISMN 30 mg/kg, 5-day treatment",caused a reduced response to Ach
same,% relaxation (Emax),"[7]; acute, 5-ISMN 30 mg/kg",92.7 ± 4.3%
same,% relaxation (Emax),[7]; repeated (5-day) 5-ISMN 30 mg/kg,78.2 ± 9.2%
"O=[N+]([O-])O[C@@H]1CO[C@H]2[C@@H]1OC[C@@H]2O [5-ISM^15N, 5-isorbide mononitrate containing nitrogen-15, reference compound]",15N-nitrite AUC0-24,[1]; oral 30 mg/kg,2758 µM·min
same,15N-nitrite Tmax,[1]; oral 30 mg/kg,30 min
same,Cmax,[1]; oral 30 mg/kg,27.5 ± 3 µM
same,15N-nitrite AUC0-24,[2],7399 µM·min
same,15N-nitrite Tmax,[2],60 min
same,Cmax,[2],20.6 ± 4.2 µM
